Assay results as given in patent US12630856B2, “Identification of host-targeting modulators of bacterial uptake and assay for quantifying intracellular bacteria” (priority 2020, dated 2026).
Structures can show the parent of a compound that is named as a salt.

Columns and labels:
Type in all cases: cell-based
bacterial uptake = experiment: CFU plating to confirm uptake enhancement
Description: CFU plating was performed to confirm the enhancement.

[1] = tested on: Escherichia coli uptake by RAW 264.7 macrophages; experiment: CFU-less assay (CLA) screen of 2,400 approved drugs for modulators of bacterial uptake
E. coli = experiment: Axenic growth of bacteria (CFU-less assay / optical density); conditions: varying amounts of compound, FIG. 19
Description: In some embodiments, methods for measuring bacterial growth rate in axenic culture are described. The methods comprise: • (a) expressing in the bacteria a fluorescent protein; • (b) growing the bacteria in axenic culture; and • (c) measuring fluorescence in the culture at regular intervals.
The CFU-less assay can reliably detect compound cytotoxicity in axenic medium. The compound(s) of interest were combined with either the host cell or the pathogen in an axenic medium to analyze toxicity of the compound(s) on the host cell or pathogen. The graphs below show an example of how the compounds from the screen affect axenic growth of E. coli. The effects of the compounds on axenic growth of E. coli were minimal.

Pseudomonas species = experiment: Attenuation of infection by Pseudomonas
Acinetobacter species = experiment: Attenuation of infection by Acinetobacter
Salmonella species = experiment: Attenuation of infection by Salmonella
Klebsiella species = experiment: Attenuation of infection by Klebsiella
[2] = tested on: intracellular and extracellular bacterial strains in RAW 264.7 macrophages; experiment: Uptake and intracellular survival of bacterial strains in RAW 264.7 macrophages (FIG. 21)
Description: This confirms the results of the screen and expands potential uses. Quinacrine was previously known as an antiparasitic, an anti-inflammatory agent, intrapleural sclerosing agent, a pneumothorax prophylaxis, Creutzfeldt-Jakob disease (CJI)) therapy, and as an anticancer agent (FIG. 21).

With `CO[C@H]1C[C@H](O[C@H]2[C@H](C)O[C@@H](O[C@@H]3/C(C)=C/C[C@@H]4C[C@@H](C[C@]5(C=C[C@H](C)[C@@H](C6CCCCC6)O5)O4)OC(=O)[C@@H]4C=C(C)[C@@H](O)[C@H]5OC/C(=C\C=C\[C@@H]3C)[C@]54O)C[C@@H]2OC)O[C@@H](C)[C@@H]1O` [Doramectin] the “confirmation of uptake enhancement by CFU plating” value (bacterial uptake) was “enhancement” and the “bacterial uptake in the presence of the compound (FIG. 2)” value [1] was “increase in bacterial uptake”.

With Polymyxin B sulfate the “gram-negative bacterial growth in axenic culture” value (E. coli) was “inhibition of gram-negative bacterial growth”.

`CCN(CC)CCCC(C)Nc1c2ccc(Cl)cc2nc2ccc(OC)cc12` (stereo not shown) [Quinacrine hydrochloride] was tested, and the “infection by Pseudomonas species” value (Pseudomonas species) was “attenuated infection”, the “infection by Acinetobacter species” value (Acinetobacter species) was “attenuated infection” and the “infection by Salmonella species” value (Salmonella species) was “attenuated infection”. For the same compound, the “infection by Klebsiella species” value (Klebsiella species) was “attenuated infection”, the “intracellular survival of both intracellular and extracellular bacterial strains” value [2] was “inhibitory effect” and the “uptake of both intracellular and extracellular bacterial strains (dT)” value ([2]; FIG. 21) was “inhibitory effect (increased dT)”. For the same compound, the “intracellular load of bacteria” value ([1]; screen of 2,400 compounds) was “decreases the intracellular load of bacteria”.
